Assay results taken from patent US20230277536A1, “METHODS AND COMPOSITIONS FOR TREATING EWING FAMILY OF TUMORS” (priority 2021, published 2023).

Assays:
[1] = test system: EWS-FLI1; assay: Western-blot analysis of EWS-FLI1 expression level; type: cell-based; conditions: A673 and SK-N-MC cells, 10 nM, 12-48 hrs; FIG. 5
Protocol: (§1) Western-blot analysis was performed to examine the suppression by YM155 on the expression level of EWS-FLI1, the protein product of EWSR1-FLI1 translocation, and its effector proteins MYC and cyclin D1. In brief, A673 and SK-N-MC cells seeded on 6-well plates were treated with 10 nM YM155 for 12-48 hrs. The cells were then harvested and lysed in a lysis buffer containing protease inhibitor cocktail (Beyotime, China) at 4C. The concentrations of total protein in the cell lysates were determined by BCA Protein Assay Kit (ThermoFisher, USA). Forty micrograms of total protein was used in each lane for SDS-PAGE and western-blot assay. Antibodies against EWS-FLI1, MYC, and cyclin D1 were used to detect the expression levels of the proteins. GAPDH was used as a loading control.

[2] = test system: A673 cells; assay: Apoptosis assays (Annexin V/PI and caspase 3 activity, flow cytometry); type: cell-based; conditions: 10 nM, 3 days drug exposure, vs DMSO, FIGS. 2A-2D
Protocol: (§2) Cellular apoptosis was then assayed with the Alexa Fluor™ 488 Annexin V/Dead cell apoptosis Kit (ThermoFisher®, USA) and GreenNuc™ live cell caspase 3 activity assay kit (Beyotime Biotechnology, China). Briefly, cells cultured in 6-well tissue culture plates were treated with 10 nM YM155 or DMSO (control). Following 3 days drug exposure, the cells were collected and assayed for apoptosis according to the manufacturers' instructions. For annexin V assay, the cell suspensions were incubated with Alexa Flour™ 488 labeled annexin V and Propidium Iodide (PI). For the caspase 3 activity assay, a caspase 3 substrate was added to generate fluorescent product. The cells were then analyzed on a BD LSR Fortessa cell analyzer. Flow cytometry data was analyzed with Flowjo software.

[3] = test system: SK-N-MC cells; assay: as above; type: cell-based; conditions: 10 nM, 3 days drug exposure, vs DMSO, FIGS. 3A-3D
Protocol: as §2

[4] = test system: SK-N-MC xenograft; assay: Murine SK-N-MC xenograft Ewing tumor model; type: in vivo, mice
[5] = test system: A673 xenograft; assay: Murine A673 xenograft Ewing tumor model
Protocol: The dosing schedules in FIG. 4B are as follows: YM155 monobromide, 3.5 mg/kg, 21-day-infusion with an osmotic pump; vincristine, 0.5 mg/kg, QW*3, IV; doxorubicin, 3.3 mg/kg, QW*3, IV; cyclophosphamide, 40 mg/kg, QW*3, IV. The dosing schedules in FIG. 4B are as follows: YM155 monobromide, 2 mg/kg, 21-day-infusion with an osmotic pump; ifosfamide, 30 mg/kg, QW*3, IV; etoposide, 7.5 mg/kg, QW*3, IP. […] The dosing schedules were as follows: YM155 monobromide, 3.5 mg/kg, 21-day-infusion with an osmotic pump; vincristine, 0.5 mg/kg, QW*3, IV; doxorubicin, 3.3 mg/kg, QW*3, IV; cyclophosphamide, 40 mg/kg, QW*3, IV.
To test for in vivo activity, a Ewing tumor model was generated by implanting either A673 or SK-N-MC cells into mice. When the tumor size reached 150 mm3, the mice were grouped randomly and injected with YM155 by 21-day infusion with an osmotic pump. The tumor size was measured every three days.

[6] = test system: MYC; assay: Western-blot analysis of MYC expression level; type: cell-based; conditions: A673 and SK-N-MC cells, 10 nM, 12-48 hrs; FIG. 5
Protocol: as §1

[7] = test system: A673 cell line; assay: In vitro cell proliferation assay (EdU labeling, high-content screening); type: cell-based; conditions: A673, EWSR1-FLI1 translocation; 72 hrs exposure, 2-fold dilutions from 200 nM; FIG. 1A
Protocol: (§3) In vitro cell proliferation assays were performed to test the sensitivity of Ewing tumor cell lines to treatment with YM155. The A673 and SK-N-MC cell lines, each of which have the EWSR1-FLI1 translocation that is characteristic of most cases of Ewing tumors, were seeded in 96-well plates at 2×10^3 cells/well and allowed to attach overnight at 37° C. and 5% CO2. The cells were exposed to YM155 at designated concentrations (2-fold serial dilutions starting from 200 nM) for 72 hrs.
(§4) Following drug exposure, the cells were labeled with 5-ethynyl-2′- deoxyuridine (EdU) to assess the tumor cell proliferation rates. The labeling lasted 4 hours in the presence of drug exposure. […]
(§5) The labeled cells were fixed with formaldehyde for 30 min, followed by staining with Hoechst 33342 in a buffer containing 0.5% triton X-100. The incorporated Edu was detected by Click-iT reaction where fixed cells were incubated with a reaction mixture containing 1X Click-iT EdU reaction buffer, CuSO4, and azide-conjugated fluorescent dye in the dark. […]
(§6) The stained tumor cells were imaged by a high-content screening (HCS) platform (Thermo Scientific Cellomics Array Scan XTi HCS reader). […] From the images fluorescent signals for cell nucleus and the EdU incorporated in newly synthesized DNA were obtained from the HCS reader. […] The IC50 was calculated from the dose response curve of drug inhibition.

[8] = test system: SK-N-MC cell line; assay: as above; type: cell-based; conditions: EWSR1-FLI1 translocation, 72 hrs exposure, 2-fold dilutions from 200 nM, FIG. 1B
Protocol: as §3, §4, §5, §6

[9] = test system: cyclin D1; assay: Western-blot analysis of cyclin D1 expression level; type: cell-based; conditions: A673 and SK-N-MC cells, 10 nM, 12-48 hrs; FIG. 5
Protocol: as §1

## 1-(2-Methoxyethyl)-2-methyl-4,9-dioxo-3-(pyrazin-2-ylmethyl)-4,9-dihydro-1H-naphtho[2,3-d] imidazolium bromide [YM155]
[1]
  protein expression of EWS-FLI1: inhibited protein expression
[2]
  apoptosis induction: induced strong apoptosis
[3]
  apoptosis induction: induced strong apoptosis
[4]; SK-N-MC xenograft in mice, 3.5 mg/kg, 21-day infusion with osmotic pump, FIG. 4C
  effect on tumor growth: strong inhibitory effect on tumor growth
[4]; SK-N-MC xenograft, YM155 3.5 mg/kg 21-day infusion vs vincristine 0.5 mg/kg QW*3 IV
  efficacy compared with vincristine standalone therapy: superior
[4]; SK-N-MC xenograft, YM155 3.5 mg/kg 21-day infusion vs vincristine 0.5, doxorubicin 3.3, cyclophosphamide 40 mg/kg QW*3 IV
  efficacy compared with vincristine/doxorubicin/cyclophosphamide triple therapy: superior
[5]; A673 xenograft in mice, 21-day infusion with osmotic pump, 3.5 or 2 mg/kg, FIGS. 4A-4B
  effect on tumor growth: strong inhibitory effect on tumor growth
[5]; A673 xenograft, YM155 2 mg/kg 21-day infusion vs ifosfamide 30 mg/kg QW*3 IV, etoposide 7.5 mg/kg QW*3 IP
  efficacy compared with ifosfamide/etoposide combination therapy: superior
[5]; A673 xenograft, YM155 3.5 mg/kg 21-day infusion vs vincristine 0.5 mg/kg QW*3 IV
  efficacy compared with vincristine standalone therapy: superior
[5]; A673 xenograft, YM155 3.5 mg/kg 21-day infusion vs vincristine 0.5, doxorubicin 3.3, cyclophosphamide 40 mg/kg QW*3 IV
  efficacy compared with vincristine/doxorubicin/cyclophosphamide triple therapy: superior
[6]
  protein expression of MYC: inhibited protein expression
[7]
  sensitivity to YM155 in in vitro cell proliferation assay: highly sensitive
[8]
  sensitivity to YM155 in in vitro cell proliferation assay: highly sensitive
[9]
  protein expression of cyclin D1: inhibited protein expression
